This is an account of results in US20210002649A1, “COMPOSITIONS AND METHODS FOR TREATING CANCER” (Beth Israel Deaconess Medical Center, Inc., priority 2018, published 2021).

Where a SMILES comes first, the peptide text is derived from it. The star is where a group is joined. Cbz = O=C(OCc1ccccc1)*

Assay [1] concerns the target T1, WWP1 (Mus musculus, UniProt Q8BZZ3).
T1 construct: from tissue
The assay is described as follows: Active CD8 T cell tumor infiltration, syngenic mice model. Format: in vivo.

Assay [2] relates to JAK-STAT, NF-kB, and TNFα pathway. In words: RNA-seq analysis of immune suppressive pathways in Hi-Myc mice. It counts as in vivo. The note with it: I3C treated Hi-Myc mice, versus vehicle (FIGS. 17-20).
Assay [3] concerns PD-L1 protein levels in WWP1 knock-out cells. The assay is described as follows: PD-L1 protein levels in WWP1 knock-out cells (gel image). Format: cell-based. The note with it: MG132 treatment (FIG. 12).

T1 sequence (Q8BZZ3 whole entry): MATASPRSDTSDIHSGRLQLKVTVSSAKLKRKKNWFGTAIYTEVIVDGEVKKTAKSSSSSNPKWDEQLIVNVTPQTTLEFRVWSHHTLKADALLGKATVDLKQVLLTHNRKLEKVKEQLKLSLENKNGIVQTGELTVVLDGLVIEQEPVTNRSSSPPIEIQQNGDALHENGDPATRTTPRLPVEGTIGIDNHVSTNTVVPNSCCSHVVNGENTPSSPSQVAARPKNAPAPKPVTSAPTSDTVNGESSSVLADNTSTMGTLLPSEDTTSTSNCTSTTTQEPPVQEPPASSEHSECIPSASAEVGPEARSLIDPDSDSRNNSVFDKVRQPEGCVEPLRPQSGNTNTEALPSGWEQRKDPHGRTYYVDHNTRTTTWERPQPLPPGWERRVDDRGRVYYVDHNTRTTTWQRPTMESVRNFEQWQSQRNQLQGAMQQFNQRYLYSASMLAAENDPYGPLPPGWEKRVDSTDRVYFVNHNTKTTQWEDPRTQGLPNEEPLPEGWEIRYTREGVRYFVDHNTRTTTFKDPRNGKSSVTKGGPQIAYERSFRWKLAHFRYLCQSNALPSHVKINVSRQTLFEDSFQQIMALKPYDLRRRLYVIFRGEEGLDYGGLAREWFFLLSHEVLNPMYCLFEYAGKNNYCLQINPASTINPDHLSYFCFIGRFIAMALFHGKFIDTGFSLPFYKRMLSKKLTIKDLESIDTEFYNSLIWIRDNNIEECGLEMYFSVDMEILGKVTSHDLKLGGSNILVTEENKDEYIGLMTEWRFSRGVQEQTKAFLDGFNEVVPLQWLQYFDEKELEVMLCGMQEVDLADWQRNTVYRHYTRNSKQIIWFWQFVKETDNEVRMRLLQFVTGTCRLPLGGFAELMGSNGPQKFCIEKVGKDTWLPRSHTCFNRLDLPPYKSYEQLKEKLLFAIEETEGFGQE

With `OCc1c[nH]c2ccccc12` [I3C, indole-3-carbinol], the “active CD8 T cell tumor infiltration” value in assay [1] (syngenic mice (FIG. 16)) is reported as “triggers active CD8 T cell tumor infiltration”. Besides, in assay [1] (tumors, after WWP1 inhibition by I3C), the tumor size entry is listed as “reducing tumor size”. Further, the “immune suppressive pathways (RNA-seq)” value in assay [2] was “down-regulation of multiple immune suppressive pathway (JAK-STAT, NF-kB, and TNFα pathway)”.

As to `CC(C)C[C@@H](C=O)NC(=O)[C@H](CC(C)C)NC(=O)[C@H](CC(C)C)NC(=O)OCc1ccccc1` [MG132] (Cbz-Leu-Leu-Leu-aldehyde), the PD-L1 protein levels entry in assay [3] is given as “restored PD-L1 protein levels”.
